Values joined by “and” are separate entries in the source; they are usually repeats but may differ in a detail not shown here. Equal entries are not always repeated.

In the data set the test system is MDA-MB-231. The data set can be described thus: shRNA barcode abundance ratio t_end/t_zero (depletion over 4 weeks of proliferation) (log2 ratio); higher = less depletion (weaker anti-proliferative effect of the shRNA). To be noted: time after t zero 28 days. The protocol: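 Pooled lentiviral negative-selection screen of 305 pGIPZ shRNAs (Open Biosystems V2LHS clones; the 21-nt half-hairpin sense stem is embedded in a mir-30 scaffold) in MDA-MB-231 breast carcinoma cells, infected at MOI 0.3 with 0.5 ug/ml puromycin selection. Barcode abundance was read on barcode tiling microarrays (six 25-nt probes per 60-nt barcode) at t_zero (5 days post-infection) and t_end (33 days; 28 days of culture after t_zero). Values are median-normalised t_end/t_zero signal ratios, averaged over the tiling probes that passed a 10-fold background filter, from three biological replicates.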
“CCTTAAATCCTCATTGCAAAT (targeted gene: USP9X)”: the “shRNA barcode abundance ratio t end/t zero (log2)” value was -0.782.

As for “CCTGGGCATTCTTGTTTCAAT (targeted gene: IL1A)”, the “shRNA barcode abundance ratio t end/t zero (log2)” value is -0.328.

With “CGAGGCAACTTGAACTCAGAA (targeted gene: IER3)”, the “shRNA barcode abundance ratio t end/t zero (log2)” value is 0.272.

For the sequence “CCGTAGCCTCTGCCCTGTAAA (targeted gene: BAG3)”, the “shRNA barcode abundance ratio t end/t zero (log2)” value was 0.779.

As for “CCAGAAGAGCCTATTACATCT (targeted gene: SOCS3)”, the “shRNA barcode abundance ratio t end/t zero (log2)” value turned out to be 0.25.

In the case of “CCAACTAATCTTCGAATCGAA (targeted gene: SOCS2)”, the “shRNA barcode abundance ratio t end/t zero (log2)” value turned out to be 0.157.

Turning to “GCAAAGAATCTAGATGCAATA (targeted gene: IL6)”, the “shRNA barcode abundance ratio t end/t zero (log2)” value was 0.508 and 0.569.

Take “GGTCTTACTGAAGTAACACAA (targeted gene: TAX1BP1)”: the “shRNA barcode abundance ratio t end/t zero (log2)” value is 0.346.

“CCTCATGTCTTGATAAGTTAA (targeted gene: FOXO1)”: the “shRNA barcode abundance ratio t end/t zero (log2)” value turned out to be 0.0815.

As for “GGCCCAAGGTCCAAGTAGAAT (targeted gene: HSPA8)”, the “shRNA barcode abundance ratio t end/t zero (log2)” value stood at 0.332.

Take “GGCTACAGCCTCGATTTATAT (targeted gene: IGFBP3)”: the “shRNA barcode abundance ratio t end/t zero (log2)” value was 0.0568.

On to “GCAGCTTCCTTGAACCATTAT (targeted gene: SPHK1)”, for which the “shRNA barcode abundance ratio t end/t zero (log2)” value is -0.397.

For “GGGCATTTGAGAAATGCATAT (targeted gene: IL7)”, the “shRNA barcode abundance ratio t end/t zero (log2)” value was 0.11.

For the sequence “GCCTTGGAACTGATGAAGATA (targeted gene: ANXA1)”, the “shRNA barcode abundance ratio t end/t zero (log2)” value came to 0.483.

In the case of “GGTTTGTGCCTTACATTATTA (targeted gene: PSEN1)”, the “shRNA barcode abundance ratio t end/t zero (log2)” value was -1.92.

On to “CGGCTTTATGATGCTTATGAA (targeted gene: ANXA5)”, for which the “shRNA barcode abundance ratio t end/t zero (log2)” value was 0.161.

On to “ACCCATTCTTCCCGTTCTTAA (targeted gene: HDAC1)”, for which the “shRNA barcode abundance ratio t end/t zero (log2)” value turned out to be 0.135.

For the sequence “TCCAATTAACTTCTCCATAAT (targeted gene: MTL5)”, the “shRNA barcode abundance ratio t end/t zero (log2)” value amounted to 0.712.

Take “CGAGCCCTGGACACCAACTAT (targeted gene: TGFB1)”: the “shRNA barcode abundance ratio t end/t zero (log2)” value stood at 0.183.

For the sequence “GCTTAGAACTTTAAGCAACAA (targeted gene: TNF)”, the “shRNA barcode abundance ratio t end/t zero (log2)” value was -1.56.

Consider “GCGGTTCTTAGAAGAGTACTT (targeted gene: DAD1)”, for which the “shRNA barcode abundance ratio t end/t zero (log2)” value is -0.432.

Take “GCCTACAGCTGCCTCCTAGAA (targeted gene: ANXA4)”: the “shRNA barcode abundance ratio t end/t zero (log2)” value amounted to 0.417.

As to “CCAAAGCATTTCATTGAGAAT (targeted gene: TOPORS)”, the “shRNA barcode abundance ratio t end/t zero (log2)” value is -0.193.

Turning to “GCATGTAATAGAGTGTGCTAA (targeted gene: MSH2)”, the “shRNA barcode abundance ratio t end/t zero (log2)” value was 1.01.

As for “CCATGTAATGGCAGTTATATT (targeted gene: HMGB1)”, the “shRNA barcode abundance ratio t end/t zero (log2)” value was 0.175.

As to “CCACGCGACATCCAATCCATA (targeted gene: IL3)”, the “shRNA barcode abundance ratio t end/t zero (log2)” value was -0.0678.

As for “CCATAGCAAGGCCTAATGTTA (targeted gene: FANCF)”, the “shRNA barcode abundance ratio t end/t zero (log2)” value turned out to be 0.00383.

Turning to “CCATATTTGCATTTGAAGGTA (targeted gene: BCL2A1)”, the “shRNA barcode abundance ratio t end/t zero (log2)” value stood at 0.349.

In the case of “CCGCCTCTTTGACCAGTTCTT (targeted gene: CRYAB, Cryab)”, the “shRNA barcode abundance ratio t end/t zero (log2)” value came out at 0.00542.

Consider “ACAGATATTTACTTCTGCAAA (targeted gene: CD28)”, for which the “shRNA barcode abundance ratio t end/t zero (log2)” value was determined as 0.143.

For “ACAGTTTGAGTCAACTAGAAT (targeted gene: CD28)”, the “shRNA barcode abundance ratio t end/t zero (log2)” value came to 0.508.

On to “CCCGTATGTGTCAACACCTAT (targeted gene: CRTAC1)”, for which the “shRNA barcode abundance ratio t end/t zero (log2)” value is -0.136.

For the sequence “GAGGATTATGGCTAACAAGAA (targeted gene: MCL1)”, the “shRNA barcode abundance ratio t end/t zero (log2)” value was 0.27.

For the sequence “CCAACCACTTCATTCTTGAAA (targeted gene: IL10)”, the “shRNA barcode abundance ratio t end/t zero (log2)” value is 0.022 and 0.0479.

“CGCTACTTCCTCCTCAAGAAT (targeted gene: AKT1)”: the “shRNA barcode abundance ratio t end/t zero (log2)” value is 0.372.

In the case of “ACTGCTGTACTGGTTTGCAAA (targeted gene: BNIP2)”, the “shRNA barcode abundance ratio t end/t zero (log2)” value came to 0.104.

For “CCTTAGCAATGTCTTAGGAAA (targeted gene: BIRC5)”, the “shRNA barcode abundance ratio t end/t zero (log2)” value is -2.27.

For the sequence “CCGCAAAGAATCAAGTTGCAA (targeted gene: HSPA8)”, the “shRNA barcode abundance ratio t end/t zero (log2)” value is -0.446.

For “TCAATCAAAGGGAAACTTGAA (targeted gene: TPT1)”, the “shRNA barcode abundance ratio t end/t zero (log2)” value is -0.105.

As to “GCAGTAGCCTTGATAGATTAT (targeted gene: BIRC6)”, the “shRNA barcode abundance ratio t end/t zero (log2)” value was -0.00928.

Take “GGATATTGAACAGAGTATTAA (targeted gene: ANXA4)”: the “shRNA barcode abundance ratio t end/t zero (log2)” value is -0.0211.

With “GCCCTGATTGTGTATATTCAT (targeted gene: BCL2)”, the “shRNA barcode abundance ratio t end/t zero (log2)” value amounted to 0.006.

As for “GCTATCTCTCCTGAAGCAATA (targeted gene: BCL2A1)”, the “shRNA barcode abundance ratio t end/t zero (log2)” value came out at 0.264.

With “GCTGGCAATTACCAGAACAAT (targeted gene: WRN)”, the “shRNA barcode abundance ratio t end/t zero (log2)” value is 0.0875.

“CGAGACATTCGCATCAAATAT (targeted gene: NRG2)”: the “shRNA barcode abundance ratio t end/t zero (log2)” value was 0.219.

For the sequence “GCAGATTCGTTCAGAGTCTAA (targeted gene: BIRC3)”, the “shRNA barcode abundance ratio t end/t zero (log2)” value came out at 0.154.

In the case of “GCGCGAGTTCGCTTCTAATAT (targeted gene: GSX1)”, the “shRNA barcode abundance ratio t end/t zero (log2)” value came to 0.174.

As to “CCCAGCAATAATTTAAACTTA (targeted gene: WRN)”, the “shRNA barcode abundance ratio t end/t zero (log2)” value was 0.168.

As to “GCTGAGACAACGTACGACAAA (targeted gene: GDNF)”, the “shRNA barcode abundance ratio t end/t zero (log2)” value was -0.263.

Turning to “CCGAATCCGCATGACTCATAA (targeted gene: HDAC1)”, the “shRNA barcode abundance ratio t end/t zero (log2)” value was found to be 1.63.

For the sequence “GCCTATATCAGCAATTGTCAT (targeted gene: ATM)”, the “shRNA barcode abundance ratio t end/t zero (log2)” value was -0.178.

On to “GCAATTGAGAGCATTCTTAAA (targeted gene: IL3)”, for which the “shRNA barcode abundance ratio t end/t zero (log2)” value was -0.0688.

“GCAAAGATCCTGATATCTTAT (targeted gene: RASA1)”: the “shRNA barcode abundance ratio t end/t zero (log2)” value came to 0.278.

Consider “GCATCTTCTTCGGTGAAATAT (targeted gene: BNIP2)”, for which the “shRNA barcode abundance ratio t end/t zero (log2)” value is -0.0165.

Regarding “GGCCCATACCTTCAAATATTA (targeted gene: NFKB1)”, the “shRNA barcode abundance ratio t end/t zero (log2)” value worked out at 0.381.

On to “TGGGAAGAACTTTAAGGATAT (targeted gene: SORT1)”, for which the “shRNA barcode abundance ratio t end/t zero (log2)” value is -0.167.

Consider “CCAGGAGAACAGTTGTTAAAT (targeted gene: HIPK3)”, for which the “shRNA barcode abundance ratio t end/t zero (log2)” value was 0.228.

With “GCAGAAGCTCTCCAAATTGAA (targeted gene: APAF1)”, the “shRNA barcode abundance ratio t end/t zero (log2)” value is 0.521.

In the case of “CCAAATTATGTGTTTCCGAAA (targeted gene: IGF1R)”, the “shRNA barcode abundance ratio t end/t zero (log2)” value came to 0.502.

On to “GCAGCTTCAGGTTTACTCAAA (targeted gene: CD28)”, for which the “shRNA barcode abundance ratio t end/t zero (log2)” value was 0.127.
